# Laboratory results from ChEMBL document CHEMBL1144044, “Synthesis and biological activity of quinolinone and dihydroquinolinone p38 MAP kinase inhibitors” (Bioorg Med Chem Lett, 2008).
# pIC50: −log10 of the molar value.
# Tests used:
# [1] = molecular target: T1, Mitogen-activated protein kinase 14 (Homo sapiens, UniProt Q16539); assay: Inhibition of p38alpha; details: for pIC50: read-out: IC50
# [2] = molecular target: T1, Mitogen-activated protein kinase 14; assay: Inhibition of p38-alpha at 10 uM by whole blood assay
# [3] = molecular target: T1, Mitogen-activated protein kinase 14; assay: Inhibition of p38-alpha by whole blood assay
# [4] = molecular target: T1, Mitogen-activated protein kinase 14; assay: Inhibition of p38-alpha at 100 nM
# [5] = molecular target: T1, Mitogen-activated protein kinase 14; assay: Inhibition of p38-alpha at 1000 nM
# [6] = molecular target: T1, Mitogen-activated protein kinase 14; assay: Inhibition of p38-alpha at 1250 nM
# T1 sequence (Q16539 whole entry): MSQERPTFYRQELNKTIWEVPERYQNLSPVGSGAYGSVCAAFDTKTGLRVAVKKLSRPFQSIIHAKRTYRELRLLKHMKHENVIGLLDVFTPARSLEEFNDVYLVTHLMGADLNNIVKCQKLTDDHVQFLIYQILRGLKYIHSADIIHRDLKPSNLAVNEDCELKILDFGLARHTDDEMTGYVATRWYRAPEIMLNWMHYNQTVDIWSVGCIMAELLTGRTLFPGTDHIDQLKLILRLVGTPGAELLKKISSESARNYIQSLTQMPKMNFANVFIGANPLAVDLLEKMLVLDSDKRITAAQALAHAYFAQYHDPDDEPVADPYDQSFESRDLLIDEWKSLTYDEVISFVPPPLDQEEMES
SMILES,pIC50 [1],pIC50 [3],other results
O=c1ccc2c(-c3ccccc3Cl)cc(O)cc2n1-c1c(Cl)cccc1Cl,9.15,–,–
COc1cc(-c2ccccc2Cl)c2ccc(=O)n(-c3c(Cl)cccc3Cl)c2c1,8.82,–,inhibition [2]: 75%
CC(C)(N)C(=O)NCCOc1cc(-c2ccccc2Cl)c2ccc(=O)n(-c3c(Cl)cccc3Cl)c2c1,9.92,7.55,–
NCCC(=O)NCCOc1cc(-c2ccccc2Cl)c2ccc(=O)n(-c3c(Cl)cccc3Cl)c2c1,9.24,6.89,–
O=C1C(O)Cc2c(-c3ccccc3Cl)cccc2N1c1c(Cl)cccc1Cl (stereo unspecified),7.56,–,–
O=c1c(O)cc2c(-c3ccccc3Cl)cc(O)cc2n1-c1c(Cl)cccc1Cl,8.30,–,–
COc1cc(-c2ccccc2Cl)c2cc(O)c(=O)n(-c3c(Cl)cccc3Cl)c2c1,7.55,–,–
COc1cc(-c2ccccc2Cl)c2cc(OC)c(=O)n(-c3c(Cl)cccc3Cl)c2c1,–,–,inhibition [4]: 29%
[N-]=[N+]=NC1Cc2c(-c3ccccc3Cl)cccc2N(c2c(Cl)cccc2Cl)C1=O (stereo unspecified),–,–,inhibition [4]: 15%
O=C(NCCOc1cc(-c2ccccc2Cl)c2ccc(=O)n(-c3c(Cl)cccc3Cl)c2c1)[C@@H]1CCCN1,9.12,7.06,–
COc1cc(-c2ccccc2Cl)c2c(c1)N(c1c(Cl)cccc1Cl)C(=O)C(O)C2 (stereo unspecified),8.05,–,–
O=c1ccc2c(-c3ccccc3Cl)cccc2n1-c1c(Cl)cccc1Cl,8.22,–,–
COC1Cc2c(-c3ccccc3Cl)cccc2N(c2c(Cl)cccc2Cl)C1=O (stereo unspecified),–,–,IC50 [1]: Not Active
O=c1ccc2c(-c3ccccc3)cccc2n1-c1c(Cl)cccc1Cl,7.87,–,–
C[C@@H](N)C(=O)NCCOc1cc(-c2ccccc2Cl)c2ccc(=O)n(-c3c(Cl)cccc3Cl)c2c1,9.70,7.33,–
O=c1ccc2c(-c3ccncc3)cccc2n1-c1c(Cl)cccc1Cl,–,–,inhibition [5]: 58%
C[C@H](N)C(=O)NCCOc1cc(-c2ccccc2Cl)c2ccc(=O)n(-c3c(Cl)cccc3Cl)c2c1,9.80,7.49,–
NC1(C(=O)NCCOc2cc(-c3ccccc3Cl)c3ccc(=O)n(-c4c(Cl)cccc4Cl)c3c2)CC1,8.82,6.00,–
NC(CO)C(=O)NCCOc1cc(-c2ccccc2Cl)c2ccc(=O)n(-c3c(Cl)cccc3Cl)c2c1 (stereo unspecified),9.30,6.70,–
O=c1ccc2c(-c3cccnc3)cccc2n1-c1c(Cl)cccc1Cl,6.34,–,–
O=C(NCCOc1cc(-c2ccccc2Cl)c2ccc(=O)n(-c3c(Cl)cccc3Cl)c2c1)[C@H]1CCCN1,9.05,7.14,–
COc1cc(-c2ccccc2Cl)c2c(c1)N(c1c(Cl)cccc1Cl)C(=O)C(OC)C2 (stereo unspecified),–,–,inhibition [6]: 63%
NCC(=O)NCCOc1cc(-c2ccccc2Cl)c2ccc(=O)n(-c3c(Cl)cccc3Cl)c2c1,9.52,7.10,–
NC1Cc2c(-c3ccccc3Cl)cccc2N(c2c(Cl)cccc2Cl)C1=O (stereo unspecified),–,–,IC50 [1]: Not Active
O=c1ccc2c(-c3ccccn3)cccc2n1-c1c(Cl)cccc1Cl,6.46,–,–
O=C1C(O)Cc2c(-c3ccccc3Cl)cc(O)cc2N1c1c(Cl)cccc1Cl (stereo unspecified),8.40,–,–
